IC50 data for 29 compounds are collected here from patent publication US9302991B2, “Arylamide derivatives as TTX-S blockers” (RaQualia Pharma Inc., priority 2010, dated 2016).

Molecules are shown by their SMILES.

For one test, the target named is T1, human Nav1.3 channels (Homo sapiens, UniProt Q9NY46).
T1 construct: expressed in transfected cells; host or cells: HEK293
As to the kind of experiment: FRET assay, human Nav1.3 (EFS on FDSS). It counts as cell-based. The conditions noted are these: HEK293 cells expressing human Nav1.3, read-out: IC50 against Nav1.3. Put shortly: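 HEK293 cells expressing the channel, loaded with 10 microM CC2-DMPE then 15 microM DiSBAC2(3) plus 0.555 mM VABSC-1 in pH 7.4 HEPES buffer at room temperature. Membrane potential changes evoked by electrical field stimulation after compound addition; IC50 from 440 nm-normalized FRET ratios.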

Another test deals with T2, human Nav1.7 channels (Homo sapiens, UniProt Q15858).
T2 construct: expressed in transfected cells; host or cells: CHO
As to the kind of experiment: FRET assay, human Nav1.7 (EFS on FDSS). The conditions noted are these: CHO cells expressing human Nav1.7, read-out: IC50 against Nav1.7. It counts as cell-based. In a few lines: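 IC50 was derived from normalized 440 nm fluorescence ratios of the EFS-evoked membrane-potential response read on FDSS. Recombinant CHO cells were sequentially dye-loaded with coumarin/oxonol FRET pair at room temperature in pH 7.4 buffer before compound addition.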

By IC50 is commonly meant the point on the concentration scale where inhibition reaches its midpoint.

T1 sequence (Q9NY46 whole entry): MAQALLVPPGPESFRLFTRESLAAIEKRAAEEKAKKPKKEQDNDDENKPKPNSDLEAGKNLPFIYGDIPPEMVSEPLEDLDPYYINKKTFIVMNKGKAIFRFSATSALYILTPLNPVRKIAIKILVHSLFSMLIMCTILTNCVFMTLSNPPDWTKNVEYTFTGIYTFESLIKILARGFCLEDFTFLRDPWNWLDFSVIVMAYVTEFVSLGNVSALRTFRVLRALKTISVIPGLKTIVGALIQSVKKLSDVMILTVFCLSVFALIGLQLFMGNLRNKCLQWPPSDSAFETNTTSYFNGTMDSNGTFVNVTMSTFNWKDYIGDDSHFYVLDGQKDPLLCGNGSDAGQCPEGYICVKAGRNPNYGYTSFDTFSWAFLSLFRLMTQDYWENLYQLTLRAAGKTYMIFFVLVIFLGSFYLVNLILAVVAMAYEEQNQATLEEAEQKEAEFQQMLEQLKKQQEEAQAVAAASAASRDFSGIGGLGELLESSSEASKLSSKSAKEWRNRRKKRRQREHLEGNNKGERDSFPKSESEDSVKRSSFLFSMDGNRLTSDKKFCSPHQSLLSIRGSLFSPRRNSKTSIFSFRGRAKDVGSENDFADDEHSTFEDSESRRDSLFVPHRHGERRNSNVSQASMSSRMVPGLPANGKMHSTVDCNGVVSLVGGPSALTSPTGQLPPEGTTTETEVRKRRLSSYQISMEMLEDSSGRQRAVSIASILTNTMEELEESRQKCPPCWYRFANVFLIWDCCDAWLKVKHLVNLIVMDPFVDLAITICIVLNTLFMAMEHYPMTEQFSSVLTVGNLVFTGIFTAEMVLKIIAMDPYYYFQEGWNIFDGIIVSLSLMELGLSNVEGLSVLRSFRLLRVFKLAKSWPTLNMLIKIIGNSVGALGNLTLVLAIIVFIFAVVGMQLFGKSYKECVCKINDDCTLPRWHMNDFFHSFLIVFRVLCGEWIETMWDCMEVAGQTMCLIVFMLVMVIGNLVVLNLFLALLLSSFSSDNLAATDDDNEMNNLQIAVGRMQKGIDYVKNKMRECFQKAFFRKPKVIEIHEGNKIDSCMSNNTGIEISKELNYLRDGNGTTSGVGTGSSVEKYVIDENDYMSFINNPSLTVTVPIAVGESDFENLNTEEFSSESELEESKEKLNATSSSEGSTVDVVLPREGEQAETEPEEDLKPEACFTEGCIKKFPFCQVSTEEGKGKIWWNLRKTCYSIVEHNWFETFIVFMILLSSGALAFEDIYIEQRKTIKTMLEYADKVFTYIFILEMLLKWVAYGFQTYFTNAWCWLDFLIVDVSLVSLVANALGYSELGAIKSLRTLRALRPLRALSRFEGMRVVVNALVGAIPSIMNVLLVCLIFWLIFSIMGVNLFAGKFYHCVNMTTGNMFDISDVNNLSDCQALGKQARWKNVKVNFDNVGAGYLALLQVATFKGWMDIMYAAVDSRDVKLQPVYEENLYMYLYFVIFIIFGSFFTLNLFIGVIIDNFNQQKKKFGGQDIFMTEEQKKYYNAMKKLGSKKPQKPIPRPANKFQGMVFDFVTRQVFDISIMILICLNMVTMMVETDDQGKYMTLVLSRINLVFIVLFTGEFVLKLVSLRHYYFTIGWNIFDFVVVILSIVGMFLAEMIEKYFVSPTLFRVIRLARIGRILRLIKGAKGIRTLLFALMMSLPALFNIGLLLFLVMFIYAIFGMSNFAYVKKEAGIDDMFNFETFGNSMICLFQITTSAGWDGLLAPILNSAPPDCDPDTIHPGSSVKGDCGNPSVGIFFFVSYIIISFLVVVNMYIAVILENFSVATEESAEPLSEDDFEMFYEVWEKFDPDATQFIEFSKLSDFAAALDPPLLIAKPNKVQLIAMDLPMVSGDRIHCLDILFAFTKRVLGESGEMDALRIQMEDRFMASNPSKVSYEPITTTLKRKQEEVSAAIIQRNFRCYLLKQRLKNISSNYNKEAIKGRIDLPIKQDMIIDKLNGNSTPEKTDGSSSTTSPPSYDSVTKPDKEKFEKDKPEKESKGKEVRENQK
T2 sequence (Q15858 whole entry): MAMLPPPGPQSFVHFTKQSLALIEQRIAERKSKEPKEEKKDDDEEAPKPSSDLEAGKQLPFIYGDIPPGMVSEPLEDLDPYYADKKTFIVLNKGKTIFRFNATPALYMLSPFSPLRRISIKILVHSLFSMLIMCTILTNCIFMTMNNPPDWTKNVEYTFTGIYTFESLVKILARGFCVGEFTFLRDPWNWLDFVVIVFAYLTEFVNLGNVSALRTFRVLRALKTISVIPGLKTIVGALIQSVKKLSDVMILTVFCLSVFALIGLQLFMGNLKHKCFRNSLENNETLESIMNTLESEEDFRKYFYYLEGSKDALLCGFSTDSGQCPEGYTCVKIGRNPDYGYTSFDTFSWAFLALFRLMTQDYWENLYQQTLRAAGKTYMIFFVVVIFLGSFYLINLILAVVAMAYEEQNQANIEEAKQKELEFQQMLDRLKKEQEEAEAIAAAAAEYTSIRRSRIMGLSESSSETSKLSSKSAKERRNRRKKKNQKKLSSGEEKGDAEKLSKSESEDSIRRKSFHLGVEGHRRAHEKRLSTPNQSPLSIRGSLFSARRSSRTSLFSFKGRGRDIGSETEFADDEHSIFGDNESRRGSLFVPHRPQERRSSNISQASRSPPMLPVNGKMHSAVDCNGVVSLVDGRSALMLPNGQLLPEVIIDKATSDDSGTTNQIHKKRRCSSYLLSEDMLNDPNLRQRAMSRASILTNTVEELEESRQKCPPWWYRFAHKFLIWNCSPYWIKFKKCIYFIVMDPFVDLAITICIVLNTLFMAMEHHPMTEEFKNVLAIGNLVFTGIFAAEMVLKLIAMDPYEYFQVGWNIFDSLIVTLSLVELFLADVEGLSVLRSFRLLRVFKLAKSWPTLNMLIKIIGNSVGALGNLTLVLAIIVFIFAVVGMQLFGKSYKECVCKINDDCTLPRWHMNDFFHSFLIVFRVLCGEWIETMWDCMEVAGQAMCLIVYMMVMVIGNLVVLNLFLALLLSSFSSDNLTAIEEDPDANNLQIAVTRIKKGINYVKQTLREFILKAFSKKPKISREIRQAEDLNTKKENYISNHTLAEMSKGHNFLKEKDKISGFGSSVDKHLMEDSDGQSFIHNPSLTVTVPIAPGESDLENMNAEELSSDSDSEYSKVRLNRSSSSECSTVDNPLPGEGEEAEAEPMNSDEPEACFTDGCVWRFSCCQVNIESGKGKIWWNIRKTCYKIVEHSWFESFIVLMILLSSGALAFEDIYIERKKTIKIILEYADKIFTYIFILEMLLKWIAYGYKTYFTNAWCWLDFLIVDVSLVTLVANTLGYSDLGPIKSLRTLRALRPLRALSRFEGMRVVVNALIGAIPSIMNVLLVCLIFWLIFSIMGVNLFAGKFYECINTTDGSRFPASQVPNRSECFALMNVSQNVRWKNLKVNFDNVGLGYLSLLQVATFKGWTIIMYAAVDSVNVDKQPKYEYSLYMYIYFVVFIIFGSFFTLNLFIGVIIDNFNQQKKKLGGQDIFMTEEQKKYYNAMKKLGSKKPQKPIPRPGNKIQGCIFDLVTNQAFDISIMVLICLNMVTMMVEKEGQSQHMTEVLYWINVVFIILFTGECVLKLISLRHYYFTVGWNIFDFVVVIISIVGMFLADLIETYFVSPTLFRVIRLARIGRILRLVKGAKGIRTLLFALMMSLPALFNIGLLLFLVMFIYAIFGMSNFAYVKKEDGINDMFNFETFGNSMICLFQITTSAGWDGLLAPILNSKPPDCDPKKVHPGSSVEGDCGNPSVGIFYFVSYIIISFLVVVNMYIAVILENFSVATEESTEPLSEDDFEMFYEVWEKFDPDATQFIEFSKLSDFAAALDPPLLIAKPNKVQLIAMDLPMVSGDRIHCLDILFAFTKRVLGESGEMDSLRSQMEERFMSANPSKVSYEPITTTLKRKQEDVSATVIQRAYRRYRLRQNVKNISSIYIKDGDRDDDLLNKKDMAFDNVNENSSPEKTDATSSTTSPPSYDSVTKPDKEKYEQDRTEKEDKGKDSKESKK

As for `CC(=O)Nc1cc(C(=O)NCc2cnc(OCC(F)(F)F)c(C)c2)cc(C)n1` [Example 371, 2-acetamido-6-methyl-N-((5-methyl-6-(2,2,2-trifluoroethoxy)pyridin-3-yl)methyl)isonicotinamide], the concentration for half-maximal inhibition (IC50) on human Nav1.3 channels and at human Nav1.7 channels was below 1000 nM in each case.

With `CCC(=O)Nc1cc(C(=O)NC(C)c2ccc(OCC(F)(F)F)c(Cl)c2)cc(C)n1` (single isomer, unassigned) [Example 677, N-(1-(3-chloro-4-(2,2,2-trifluoroethoxy)phenyl)ethyl)-2-methyl-6-propionamidoisonicotinamide], the half-maximal inhibitory concentration (IC50) at human Nav1.3 channels and on human Nav1.7 channels was below 1000 nM throughout.

For the compound `Cc1cc(C(=O)NCc2ccc(OCC(F)(F)F)c(C)c2)cc(NC(=O)C2CC2)n1` [Example 831, 2-(cyclopropanecarboxamido)-6-methyl-N-(3-methyl-4-(2,2,2-trifluoroethoxy)benzyl)isonicotinamide], the IC50 on human Nav1.3 channels and at human Nav1.7 channels was below 1000 nM throughout.

`CC(=O)Nc1cc(C(=O)NCc2cccc(C(F)(F)F)c2C)cc(C)n1` [Example 815, 2-acetamido-6-methyl-N-(2-methyl-3-(trifluoromethyl)benzyl)isonicotinamide]: the concentration for half-maximal inhibition (IC50) at human Nav1.3 channels and on human Nav1.7 channels was below 1000 nM throughout.

Take `COc1nc(OCC(F)(F)F)ccc1CNC(=O)c1cc(C)nc(NC(C)=O)c1` [Example 241, 2-acetamido-N-((2-methoxy-6-(2,2,2-trifluoroethoxy)pyridin-3-yl)methyl)-6-methylisonicotinamide]: the IC50 at human Nav1.3 channels and at human Nav1.7 channels was below 1000 nM in each case.

As for `Cc1cc(C(=O)NCc2ccc(OCC(F)(F)F)c(C)c2)nc(NC(=O)C2CC2)n1` [Example 780, 2-(cyclopropanecarboxamido)-6-methyl-N-(3-methyl-4-(2,2,2-trifluoroethoxy)benzyl)pyrimidine-4-carboxamide], the IC50 on human Nav1.3 channels and at human Nav1.7 channels was below 1000 nM each time.

As for `CCC(=O)Nc1cc(C(=O)NCc2cccc(OC(F)(F)F)c2)cc(C)n1` [Example 526, 2-methyl-6-propionamido-N-(3-(trifluoromethoxy)benzyl)isonicotinamide], the IC50 at human Nav1.3 channels and on human Nav1.7 channels was below 1000 nM in each case.

With `CCC(=O)Nc1cc(C(=O)NCc2cnc(OCC(F)(F)F)c(C)c2)cc(C)n1` [Example 372, 2-methyl-N-((5-methyl-6-(2,2,2-trifluoroethoxy)pyridin-3-yl)methyl)-6-propionamidoisonicotinamide], the IC50 at human Nav1.3 channels and at human Nav1.7 channels was below 1000 nM throughout.

`CCC(=O)Nc1cc(C(=O)NCc2ccc(OCC(F)(F)C(F)(F)F)nc2)cc(C)n1` [Example 643, 2-methyl-N-((6-(2,2,3,3,3-pentafluoropropoxy)pyridin-3-yl)methyl)-6-propionamidoisonicotinamide]: the IC50 at human Nav1.3 channels and at human Nav1.7 channels was below 1000 nM in each case.

As for `Cc1cc(C(C)NC(=O)c2ccnc(NC(=O)C3CC3)n2)cnc1OCC(F)(F)C(F)F` (single isomer, unassigned) [Example 906, 2-(cyclopropanecarboxamido)-N-(1-(5-methyl-6-(2,2,3,3-tetrafluoropropoxy)pyridin-3-yl)ethyl)pyrimidine-4-carboxamide], the IC50 on human Nav1.3 channels and on human Nav1.7 channels was below 1000 nM in each case.

For `CC(=O)Nc1cc(C(=O)NCc2cc(C)cc(OC(F)(F)F)c2)cc(C)n1` [Example 602, 2-acetamido-6-methyl-N-(3-methyl-5-(trifluoromethoxy)benzyl)isonicotinamide], the half-inhibitory concentration (IC50) on human Nav1.3 channels and at human Nav1.7 channels was below 1000 nM each time.

As for `CCC(=O)Nc1cc(C(=O)NCc2ccc(OCC(F)(F)F)nc2OC)cc(C)n1` [Example 150, N-((2-methoxy-6-(2,2,2-trifluoroethoxy)pyridin-3-yl)methyl)-2-methyl-6-propionamidoisonicotinamide], the IC50 on human Nav1.3 channels and at human Nav1.7 channels was below 1000 nM in each case.

On to `CC(NC(=O)c1ccnc(NC(=O)C2CC2)n1)c1ccc(OCC(F)(F)F)c(Cl)c1` (single isomer, unassigned) [Example 680, N-(1-(3-chloro-4-(2,2,2-trifluoroethoxy)phenyl)ethyl)-2-(cyclopropanecarboxamido)pyrimidine-4-carboxamide], for which the IC50 on human Nav1.3 channels and at human Nav1.7 channels was below 1000 nM each time.

As to `Cc1cc(C(=O)NC(C)c2cnc(OCC(F)(F)F)c(C)c2)cc(NC(=O)C2CC2)n1` (single isomer, unassigned) [Example 823, 2-(cyclopropanecarboxamido)-6-methyl-N-(1-(5-methyl-6-(2,2,2-trifluoroethoxy)pyridin-3-yl)ethyl)isonicotinamide], the IC50 at human Nav1.3 channels and at human Nav1.7 channels was below 1000 nM throughout.

Consider `CC(C)C(=O)Nc1cc(C(=O)NCc2cccc(C(F)(F)F)c2)ccn1` [Example 533, 2-isobutyramido-N-(3-(trifluoromethyl)benzyl)isonicotinamide], for which the half-inhibitory concentration (IC50) at human Nav1.3 channels and at human Nav1.7 channels was below 1000 nM in each case.

Turning to `Cc1cc(CNC(=O)c2ccnc(NC(=O)C(C)C)c2)ccc1OC(F)(F)F` [Example 807, 2-isobutyramido-N-(3-methyl-4-(trifluoromethoxy)benzyl)isonicotinamide], the half-maximal inhibitory concentration (IC50) at human Nav1.3 channels and on human Nav1.7 channels was below 1000 nM throughout.

Consider `CCC(=O)Nc1cc(C(=O)NC(C)c2cnc(OCC(F)(F)C(F)F)c(C)c2)ccn1` (single isomer, unassigned) [Example 925, N-(1-(5-methyl-6-(2,2,3,3-tetrafluoropropoxy)pyridin-3-yl)ethyl)-2-propionamidoisonicotinamide], for which the IC50 on human Nav1.3 channels and on human Nav1.7 channels was below 1000 nM in each case.

Regarding `Cc1cc(CNC(=O)c2ccnc(NC(=O)C(C)C)c2)cnc1OCC(F)(F)C(F)F` [Example 941, 2-isobutyramido-N-((5-methyl-6-(2,2,3,3-tetrafluoropropoxy)pyridin-3-yl)methyl)isonicotinamide], the IC50 at human Nav1.3 channels and on human Nav1.7 channels was below 1000 nM throughout.

`Cc1cc(C(C)NC(=O)c2ccnc(NC(=O)C3CC3)c2)cnc1OCC(F)(F)F` (single isomer, unassigned) [Example 89, 2-(cyclopropanecarboxamido)-N-(1-(5-methyl-6-(2,2,2-trifluoroethoxy)pyridin-3-yl)ethyl)isonicotinamide]: the IC50 at human Nav1.3 channels and on human Nav1.7 channels was below 1000 nM in each case.

As for `CCC(=O)Nc1cc(C(=O)NCc2cnc(OCC(F)(F)F)c(Br)c2)ccn1` [Example 895, N-((5-bromo-6-(2,2,2-trifluoroethoxy)pyridin-3-yl)methyl)-2-propionamidoisonicotinamide], the IC50 on human Nav1.3 channels and on human Nav1.7 channels was below 1000 nM throughout.

For `Cc1cc(C(=O)NC(C)c2cccc(OC(F)(F)F)c2)cc(NC(=O)C(C)C)n1` (single isomer, unassigned) [Example 499, 2-isobutyramido-6-methyl-N-(1-(3-(trifluoromethoxy)phenyl)ethyl)isonicotinamide], the IC50 at human Nav1.3 channels and at human Nav1.7 channels was below 1000 nM throughout.

For `CCCC(=O)Nc1cc(C(=O)NCc2cnc(OCC(F)F)c(C)c2)ccn1` [Example 757, 2-butyramido-N-((6-(2,2-difluoroethoxy)-5-methylpyridin-3-yl)methyl)isonicotinamide], the IC50 on human Nav1.3 channels and on human Nav1.7 channels was below 1000 nM throughout.

For `CCC(=O)Nc1nccc(C(=O)NCc2cnc(OCC(F)(F)F)c(Cl)c2)n1` [Example 410, N-((5-chloro-6-(2,2,2-trifluoroethoxy)pyridin-3-yl)methyl)-2-propionamidopyrimidine-4-carboxamide], the IC50 at human Nav1.3 channels and on human Nav1.7 channels was below 1000 nM in each case.

As for `COc1nc(OCC(F)(F)F)ccc1CNC(=O)c1ccnc(NC(C)=O)c1` [Example 148, 2-acetamido-N-((2-methoxy-6-(2,2,2-trifluoroethoxy)pyridin-3-yl)methyl)isonicotinamide], the IC50 at human Nav1.3 channels and at human Nav1.7 channels was below 1000 nM each time.

Consider `CC(=O)Nc1cc(C(=O)NCc2cnc(OCC(F)(F)F)c(Br)c2)ccn1` [Example 762, 2-acetamido-N-((5-bromo-6-(2,2,2-trifluoroethoxy)pyridin-3-yl)methyl)isonicotinamide], for which the concentration for half-maximal inhibition (IC50) on human Nav1.3 channels and at human Nav1.7 channels was below 1000 nM throughout.

For `Cc1cc(C(=O)NC(C)c2cnc(OCC(F)(F)F)c(C)c2)cc(NC(=O)C(C)C)n1` (single isomer, unassigned) [Example 520, 2-isobutyramido-6-methyl-N-(1-(5-methyl-6-(2,2,2-trifluoroethoxy)pyridin-3-yl)ethyl)isonicotinamide], the IC50 at human Nav1.3 channels and at human Nav1.7 channels was below 1000 nM each time.

Turning to `Cc1cc(C(=O)NCc2cnc(OCC(F)(F)F)c(C)c2)cc(NC(=O)CC2CC2)n1` [Example 954, 2-(2-cyclopropylacetamido)-6-methyl-N-((5-methyl-6-(2,2,2-trifluoroethoxy)pyridin-3-yl)methyl)isonicotinamide], the IC50 at human Nav1.3 channels and at human Nav1.7 channels was below 1000 nM each time.

As to `Cc1cc(C(=O)NCc2cnc(OCC(F)(F)C(F)F)c(C)c2)cc(NC(=O)C(C)C)n1` [Example 945, 2-isobutyramido-6-methyl-N-((5-methyl-6-(2,2,3,3-tetrafluoropropoxy)pyridin-3-yl)methyl)isonicotinamide], the IC50 on human Nav1.3 channels and on human Nav1.7 channels was below 1000 nM throughout.

As for `CC(=O)Nc1cc(C(=O)NCc2cc(C)cc(OC(F)(F)F)c2)ccn1` [Example 597, 2-acetamido-N-(3-methyl-5-(trifluoromethoxy)benzyl)isonicotinamide], the IC50 at human Nav1.3 channels and on human Nav1.7 channels was below 1000 nM each time.
